Consider 22 compounds from patent US20250171465A1, “AKT INHIBITORS” (Stablix, Inc., priority 2023, published 2025).

Like-named read-outs stand apart in the source and are kept apart here.

Type in all cases: cell-based
Test [1] deals with MDAMB231.1. The experiment in a line: Cell Titer Glo (CTG) proliferation assay, MDA-MB-231. To be noted: MDAMB231.1 cells, 72 hrs., read-out: AVE CTG Proliferation MDAMB231.1 72 hrs. The procedure: (§1) Seed cells in 40 μL of cell culture media into each well of 384-well cell culture plate, spin them at room temperature at 1,000 RPM for 1 minute and then transfer the plates into 37° C. 5% CO2 incubator overnight. Next day, treat cells with 40 nL of diluted compound and return to incubator. After compound treatment for 3 days, Add 30 μL of CellTiter-Glo reagent (Promega) into each well to be detected. Then place the plates at room temperature for 30 min followed by reading on EnVision. Inhibition activity calculated as % DMSO=100×(LumSample-Lum low control)/(Lum high control-Lum low control) where high control is from cells treated with 0.1% DMSO and Low control obtained from PBS only. Use XLFit (equation 201) to calculate IC50 (A+ ((B−A)/(1[…]((x/C)^D)))) where A: Bottom, B: Top, C: IC50, D: Slope.

The test system of test [2] is MDAMB468.1. Kind of test: Cell Titer Glo (CTG) proliferation assay, MDA-MB-468. The settings on record: MDAMB468.1 cells, 72.0 hrs., read-out: AVE CTG Proliferation MDAMB468.1 72.0 hrs. On the procedure: as §1
Background: In ATP-based viability assays light output follows the ATP content of the culture.

Test [3] has as its system KU1919.1. The experiment in a line: Cell Titer Glo (CTG) proliferation assay, KU1919. To be noted: KU1919.1 cells, 72.0 hrs., read-out: AVE CTG Proliferation KU1919.1 72.0 hrs. In a few lines: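 After overnight seeding at 37 °C, 5% CO2, cells were exposed to compound for 3 days. Viability read by CellTiter-Glo luminescence after 30 min at room temperature.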

For `C[C@@H]1C[C@@H](O)c2ncnc(N3CCN(C(=O)C(CN4CCC(CN5CCN(C(=O)[C@H](NC(=O)c6cccc([C@@H]7CCCN(C(=O)C8CC8)C7)c6F)C6CCCCC6)CC5)CC4)c4ccc(Cl)cc4)CC3)c21` (some centres unmarked) [Compound I-278], the IC50 fell in the range of 1 to 5 µM in test [1] (Homo sapiens, MDA-MB-231); 1 to 5 µM in test [2] (Homo sapiens, MDA-MB-468); 0.5 to 1 µM in test [3] (Homo sapiens, KU-19-19).

As for `C[C@@H]1C[C@@H](O)c2ncnc(N3CCN(C(=O)[C@H](CNCCNC(=O)CN4CCC(CN5CCN(C(=O)[C@H](NC(=O)c6cccc(C7CCCN(C(=O)CNCc8ccc(F)cc8F)C7)c6)C6CCCCC6)CC5)CC4)c4ccc(Cl)cc4)CC3)c21` (some centres unmarked) [Compound I-204], the IC50 in test [1] (Homo sapiens, MDA-MB-231) is 1 to 5 µM; in test [2] (Homo sapiens, MDA-MB-468) it was 1 to 5 µM; in test [3] (Homo sapiens, KU-19-19), 1 to 5 µM.

In the case of `NC1(C(=O)N[C@@H](CCN2CCC(OC3CCN(C(=O)[C@H](NC(=O)c4cccc(C5CCCN(C(=O)CNC6CC6)C5)c4F)C4CCCCC4)CC3)CC2)c2ccc(Cl)cc2)CCN(c2ncnc3[nH]ccc23)CC1` (some centres unmarked) [Compound I-283], the IC50 in test [1] (Homo sapiens, MDA-MB-231) lay within 1 to 5 µM; in test [2] (Homo sapiens, MDA-MB-468), 1 to 5 µM; in test [3] (Homo sapiens, KU-19-19), 1 to 5 µM.

On to `CCc1cccc(-c2cnc(C(=O)N3CCC(OC4CCN(CC(=O)NCCNC[C@@H](C(=O)N5CCN(c6ncnc7c6[C@H](C)C[C@H]7O)CC5)c5ccc(Cl)cc5)CC4)CC3)c(NC(C)=O)c2)c1` [Compound I-196], for which the IC50 in test [1] (Homo sapiens, MDA-MB-231) lay within 5 to 10 µM; in test [2] (Homo sapiens, MDA-MB-468) it was 5 to 10 µM; in test [3] (Homo sapiens, KU-19-19), 1 to 5 µM.

As to `CC(C)(C)OC(=O)N[C@@H](C(=O)N1CCN(CC2CCN(CC(=O)N3CCN(CC[C@H](NC(=O)C4(N)CCN(c5ncnc6[nH]ccc56)CC4)c4ccc(Cl)cc4)CC3)CC2)CC1)C1CCCCC1` [Compound I-310], the IC50 is 5 to 10 µM in test [1] (Homo sapiens, MDA-MB-231); 1 to 5 µM in test [2] (Homo sapiens, MDA-MB-468); 1 to 5 µM in test [3] (Homo sapiens, KU-19-19).

In the case of `NC1(C(=O)N[C@@H](CCN2CCN(C(=O)CN3CCC(OC4CCN(C(=O)[C@H](NC(=O)c5cccc(C6CCCN(C(=O)CNCc7ccc(F)cc7F)C6)c5)C5CCCCC5)CC4)CC3)CC2)c2ccc(Cl)cc2)CCN(c2ncnc3[nH]ccc23)CC1` (some centres unmarked) [Compound I-258], the IC50 in test [1] (Homo sapiens, MDA-MB-231) lay in the range of 1 to 5 µM; in test [2] (Homo sapiens, MDA-MB-468) it was 1 to 5 µM; in test [3] (Homo sapiens, KU-19-19) it was 0.5 to 1 µM.

Consider `N[C@@H](C(=O)N1CCC(OC2CCN(CC(=O)N3CCN(CC[C@H](NC(=O)C4(N)CCN(c5ncnc6[nH]ccc56)CC4)c4ccc(Cl)cc4)CC3)CC2)CC1)C1CCCCC1` [Compound I-235], for which the IC50 was greater than 10 µM in test [1] (Homo sapiens, MDA-MB-231); greater than 10 µM in test [2] (Homo sapiens, MDA-MB-468); greater than 10 µM in test [3] (Homo sapiens, KU-19-19).

Take `CCc1cccc(-c2cc(F)c(C(=O)N3CCN(CC4CCN(CC(C(=O)N5CCN(c6ncnc7c6[C@H](C)C[C@H]7O)CC5)c5ccc(Cl)cc5)CC4)CC3)c(F)c2)c1` (some centres unmarked) [Compound I-262]: the IC50 in test [1] (Homo sapiens, MDA-MB-231) was 1 to 5 µM; in test [2] (Homo sapiens, MDA-MB-468), 1 to 5 µM; in test [3] (Homo sapiens, KU-19-19), 0.5 to 1 µM.

As to `CC(C)(C)OC(=O)N1CCC(OC2CCN(CC(=O)N3CCN(CC[C@H](NC(=O)C4(N)CCN(c5ncnc6[nH]ccc56)CC4)c4ccc(Cl)cc4)CC3)CC2)CC1` [Compound I-315], the IC50 in test [1] (Homo sapiens, MDA-MB-231) is greater than 10 µM; in test [2] (Homo sapiens, MDA-MB-468) it was 1 to 5 µM; in test [3] (Homo sapiens, KU-19-19), 1 to 5 µM.

As to `NC1(C(=O)N[C@@H](CCN2CCN(C(=O)CN3CCC(OC4CCN(C(=O)[C@H](NC(=O)c5cccc(C6CN(C(=O)CNC7CC7)C6)c5)C5CCCCC5)CC4)CC3)CC2)c2ccc(Cl)cc2)CCN(c2ncnc3[nH]ccc23)CC1` [Compound I-241], the IC50 in test [1] (Homo sapiens, MDA-MB-231) was in the range of 5 to 10 µM; in test [2] (Homo sapiens, MDA-MB-468) it was 1 to 5 µM; in test [3] (Homo sapiens, KU-19-19), 1 to 5 µM.

Regarding `NC1(C(=O)N[C@@H](CCN2CCC(OC3CCN(C(=O)[C@H](NC(=O)c4cccc(C5CCCN(C(=O)CNCc6ccc(F)cc6F)C5)c4F)C4CCCCC4)CC3)CC2)c2ccc(Cl)cc2)CCN(c2ncnc3[nH]ccc23)CC1` (some centres unmarked) [Compound I-279], the IC50 in test [1] (Homo sapiens, MDA-MB-231) fell in the range of 1 to 5 µM; in test [2] (Homo sapiens, MDA-MB-468) it was 1 to 5 µM; in test [3] (Homo sapiens, KU-19-19) it was 0.5 to 1 µM.

With `C[C@@H]1C[C@@H](O)c2ncnc(N3CCN(C(=O)C(CN4CCC(CN5CCN(C(=O)[C@H](NC(=O)c6cccc([C@H]7CCCN(C(=O)C8CC8)C7)c6F)C6CCCCC6)CC5)CC4)c4ccc(Cl)cc4)CC3)c21` (some centres unmarked) [Compound I-277], the IC50 in test [1] (Homo sapiens, MDA-MB-231) was less than 0.5 µM; in test [2] (Homo sapiens, MDA-MB-468) it was less than 0.5 µM; in test [3] (Homo sapiens, KU-19-19) it was less than 0.5 µM.

Consider `CCOc1cc(OC)ccc1CNCC(=O)N1CCCC(c2cccc(C(=O)N[C@@H](C(=O)N3CCN(CC4CCN(CC(=O)NCCNC[C@@H](C(=O)N5CCN(c6ncnc7c6[C@H](C)C[C@H]7O)CC5)c5ccc(Cl)cc5)CC4)CC3)C3CCCCC3)c2)C1` (some centres unmarked) [Compound I-17], for which the IC50 in test [1] (Homo sapiens, MDA-MB-231) fell in the range of 1 to 5 µM; in test [2] (Homo sapiens, MDA-MB-468), 1 to 5 µM; in test [3] (Homo sapiens, KU-19-19), 1 to 5 µM.

Regarding `CCc1cccc(-c2cc(F)c(C(=O)N3CCC(OC4CCN(CC(=O)NCCNC[C@@H](C(=O)N5CCN(c6ncnc7c6[C@H](C)C[C@H]7O)CC5)c5ccc(Cl)cc5)CC4)CC3)c(F)c2)c1` [Compound I-261], the IC50 in test [1] (Homo sapiens, MDA-MB-231) lay within 1 to 5 µM; in test [2] (Homo sapiens, MDA-MB-468) it was 1 to 5 µM; in test [3] (Homo sapiens, KU-19-19), 1 to 5 µM.

On to `NC1(C(=O)N[C@@H](CCN2CCC(OC3CCN(C(=O)c4c(F)cc(-c5ccccc5)cc4F)CC3)CC2)c2ccc(Cl)cc2)CCN(c2ncnc3[nH]ccc23)CC1` [Compound I-281], for which the IC50 was less than 0.5 µM in test [1] (Homo sapiens, MDA-MB-231); 1 to 5 µM in test [2] (Homo sapiens, MDA-MB-468); 1 to 5 µM in test [3] (Homo sapiens, KU-19-19).

`NC1(C(=O)N[C@@H](CCN2CCC(OC3CCN(C(=O)c4cccc(C5CCCN(C(=O)C6CC6)C5)c4)CC3)CC2)c2ccc(Cl)cc2)CCN(c2ncnc3[nH]ccc23)CC1` (some centres unmarked) [Compound I-248]: the IC50 in test [1] (Homo sapiens, MDA-MB-231) lay in the range of 5 to 10 µM; in test [2] (Homo sapiens, MDA-MB-468) it was 5 to 10 µM; in test [3] (Homo sapiens, KU-19-19) it was 1 to 5 µM.

With `C[C@@H]1C[C@@H](O)c2ncnc(N3CCN(C(=O)C(CN4CCC(CN5CCN(C(=O)[C@H](NC(=O)c6cccc([C@H]7CCCN(C(=O)CNC8CC8)C7)c6)C6CCCCC6)CC5)CC4)c4ccc(Cl)cc4)CC3)c21` (some centres unmarked) [Compound I-211], the IC50 in test [1] (Homo sapiens, MDA-MB-231) was 1 to 5 µM; in test [2] (Homo sapiens, MDA-MB-468) it was 1 to 5 µM; in test [3] (Homo sapiens, KU-19-19), 0.5 to 1 µM.

For the compound `CC(C)NC[C@@H](C(=O)N1CCN(c2ncnc3c2[C@H](C)C[C@H]3O)CC1)c1ccc(Cl)cc1` [GDC-0068, Ipatasertib, reference compound], the IC50 in test [1] (Homo sapiens, MDA-MB-231) is greater than 10 µM; in test [2] (Homo sapiens, MDA-MB-468), greater than 10 µM; in test [3] (Homo sapiens, KU-19-19), greater than 10 µM.

On to `NC1(C(=O)N[C@@H](CCO)c2ccc(Cl)cc2)CCN(c2nc[nH]c3nccc2-3)CC1` [AZD-5363, Capivasertib, reference compound], for which the IC50 in test [1], in test [2] and in test [3] was greater than 10 µM throughout.

For the compound `C[C@@H]1C[C@@H](O)c2ncnc(N3CCN(C(=O)[C@H](CNCCNC(=O)CN4CCC(OC5CCN(C(=O)[C@H](NC(=O)c6cccc(C7CCCN(C(=O)CNCc8ccc(F)cc8F)C7)c6)C6CCCCC6)CC5)CC4)c4ccc(Cl)cc4)CC3)c21` (some centres unmarked) [Compound I-208], the IC50 fell in the range of 1 to 5 µM in test [1] (Homo sapiens, MDA-MB-231); 1 to 5 µM in test [2] (Homo sapiens, MDA-MB-468); 1 to 5 µM in test [3] (Homo sapiens, KU-19-19).

Turning to `NC1(C(=O)N[C@@H](CCN2CCN(C(=O)CN3CCC(OC4CCN(C(=O)[C@H](NC(=O)c5cccc(C6CN(C(=O)C7CC7)C6)c5)C5CCCCC5)CC4)CC3)CC2)c2ccc(Cl)cc2)CCN(c2ncnc3[nH]ccc23)CC1` [Compound I-240], the IC50 lay in the range of 1 to 5 µM in test [1] (Homo sapiens, MDA-MB-231); 1 to 5 µM in test [2] (Homo sapiens, MDA-MB-468); 1 to 5 µM in test [3] (Homo sapiens, KU-19-19).

For `NC1(C(=O)N[C@@H](CCN2CCN(C(=O)CN3CCC(OC4CCN(C(=O)c5cccc(C6CCCN(C(=O)CNC7CC7)C6)c5)CC4)CC3)CC2)c2ccc(Cl)cc2)CCN(c2ncnc3[nH]ccc23)CC1` (some centres unmarked) [Compound I-257], the IC50 in test [2] (Homo sapiens, MDA-MB-468) was greater than 10 µM; in test [3] (Homo sapiens, KU-19-19) it was greater than 10 µM.
